A short description of series [1]: pKa of nanoparticle compositions. Format: physicochemical. To be noted: Table 20-1; * formulated with DOPE.
A short description of series [2]: Encapsulation efficiency of RNA (QUANT-IT RIBOGREEN RNA assay). Format: physicochemical. An outline of the steps: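 RiboGreen fluorescence (ex ~480, em ~520 nm) measured after 15 min at 37 °C on samples at ~5 μg/mL in TE, pH 7.5, ± 2% Triton X-100 solution. After blank subtraction, free RNA is given as intact-sample signal divided by disrupted-sample signal.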
For the next series, the system named is IL-6. The series is described as follows: Cytokine production induced by sample formulations: IL-6. It counts as in vivo. To be noted: Table 20-4, formula (20-I); mice, i.v., 0.5 mpk, 6 hours; in pg/mL (unit assumed). An outline of the steps:
(§1)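 Cytokine levels were quantified at 6 hours in mice given the nanoparticle compositions i.v. at 0.5 mpk. MC3 standard formulation and PBS served as comparators.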

Series [3] has as its system modified luciferase expression. Nature of the series: Expression of Luc in different organs (liver, lung, spleen, femur) 6 hours after intravenous administration. It counts as in vivo. As to conditions: Table 20-3, mice, i.v., 0.5 mpk. As to the method:
The efficacy of the nanoparticle compositions presented in Tables 1, 1a, 17-1, 19-1, 20-1 and 21-1 was further evaluated by measuring the expression of modified luciferase in the liver, lung, spleen, and femur upon administration of a given composition. Formulations were administered intravenously to mice (n=3) at a dosage of 0.5 mpk and bioluminescence measured after 6 hours. The standard MC3 formulation and a PBS control were also tested.

Series [4] relates to modified luciferase (Luc) expression. The series is described as follows: Expression upon intramuscular administration of Luc mRNA and H10 mRNA formulations. It counts as in vivo. To be noted: 6 hours after intramuscular administration. As to the method:
Sample formulations including both modified luciferase (Luc) mRNA and H10 mRNA were prepared and administered intramuscularly at day 1 and day 21 and the resulting expression and immunogenicity were evaluated simultaneously. Formulations including compounds according to formula (20-I) were prepared and administered at doses of 0.001 and 0.01 mpk (e.g., doses of 0.0005 mpk of a formulation including Luc mRNA and a formulation including H10 mRNA or doses of 0.005 mpk of a formulation including Luc mRNA and a formulation including H10 mRNA). As shown in Table 20-4, the total flux was higher upon administration of the second dose for each composition and at each dose level. Total flux was higher for the higher dose level.

In the next series the test system is IP-10. Nature of the series: Cytokine production induced by sample formulations: IP-10. As to conditions: Table 20-4, formula (20-I); mice, i.v., 0.5 mpk, 6 hours; in pg/mL (unit assumed). Format: in vivo. An outline of the steps: as §1
In series [5] the test system is luciferase (Luc) mRNA expression. Nature of the series: Expression of Luc induced by sample formulations, whole-body bioluminescence after intravenous administration. Format: in vivo. As to conditions: mice, i.v., 0.5 mg/kg. In short, it runs like this: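 Read-out is whole-body bioluminescence at 3, 6 and 24 h after a single intravenous dose of 0.5 mg/kg Luc mRNA in nanoparticle formulations. Groups of n=6 mice; PBS and standard MC3 formulation as references.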

Series [6] is described as follows: Particle size and polydispersity index of nanoparticle compositions (Zetasizer Nano ZS). Format: physicochemical. An outline of the steps: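 Values are size and PDI readings from a Zetasizer Nano ZS. Measurements are taken in 1×PBS; zeta potential, by contrast, uses 15 mM PBS.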
A further series deals with hEPO mRNA expression. Nature of the series: Expression of hEPO in CD-1 mice. It counts as in vivo. To be noted: Table 7e; hEPO expression, CD-1 mice, 0.5 mpk. The text has this: FIG. 12 is a set of graphs illustrating hEPO expression levels in CD-1 mice dosed with compounds of the disclosure, compared to MC3. PBS is used as control. […] In graphs A-C numbers 1-14 refer to compositions containing the following: 1: Compound 73, 2: Compound 80, 3: Compound 70; 4: Compound 81; 5: Compound 69; 6: Compound 82; 7: Compound 83; 8: Compound 62; 9: Compound 84; 10: Compound 85; 11: Compound 86; 12: Compound 87; 13: MC3; 14: PBS.
FIG. 13 is a graph showing hEPO levels (pg/mL) in CD-1 mice up to ˜25 h after administration of a nanoparticle composition containing compounds of the disclosure, compared to a composition containing MC3. Numbers 1-13 refer to compositions containing the following: 1: Compound 73, 2: Compound 80, 3: Compound 70; 4: Compound 81; 5: Compound 69; 6: Compound 82; 7: Compound 83; 8: Compound 62; 9: Compound 84; 10: Compound 85; 11: Compound 86; 12: Compound 87; 13: MC3. […]

Where [7] appears, read: Table 20-1, * formulated with DOPE.

As a reminder, the pKa is the pH at which an ionisable group is half protonated. Consider `CCCCCCCCCCCCN(CCCCCCCCCCCC)CCN(CCCCCCCCCCCC)CC(=O)O` [Compound 20-1, N-(2-(Didodecylamino)ethyl)-N-dodecylglycine], for which the pKa in series [1] is 4.48. Further, the “EE (%)” value in [2] (setting [7]) is on record as 90.7%. This molecule also came in with an IL-6 in the series with IL-6 of 62.4. Also, the “Total Flux Liver” value in [3] (liver) was 3.19E+05. Also, in series [3] (lung), the “Total Flux Lung” value is 3.79E+04. The “Total Flux Spleen” value in [3] (spleen) stood at 1.70E+05. Moreover, in [4] (0.001 mpk, Dose 1), the “Total flux (p/s) 0.001 mpk Dose 1” value worked out at 3.50E+05 p/s. Also, the “Total flux (p/s) 0.001 mpk Dose 2” value in series [4] (0.001 mpk, Dose 2) was 1.99E+06 p/s. Also, the “Total flux (p/s) 0.01 mpk Dose 1” value in series [4] (0.01 mpk, Dose 1) came out at 3.16E+06 p/s. For the same molecule, the “Total flux (p/s) 0.01 mpk Dose 2” value in series [4] (0.01 mpk, Dose 2) stood at 1.04E+07 p/s. The IP-10 in the series with IP-10 came out at 2065.8. Besides, the “Total Flux 3 hours” value in series [5] (Table 20-2, 3 hours) is given as 1.44E+06. Further, in series [5] (Table 20-2, 6 hours), the “Total Flux 6 hours” value came out at 8.30E+05. For the same molecule, the “Total Flux 24 hours” value in [5] (Table 20-2, 24 hours) came to 4.53E+05. Besides, in series [5] (24 hours), the “total flux after 24 hours, rank within the named table (in words)” value is reported as “lowest”. In addition, in series [6] (setting [7]), the PDI turned out to be 0.078 and the “Size (nm)” value worked out at 87.8 nm.
Take `CCCCCCCCCN(CCCC(=O)OCCCCC)CCC(=O)N1CCN(C(=O)CCN(CCCCCCCCC)CCN(CCCCCCCCC)CCCCCCCCC)CC1` [Compound 62, Pentyl 4-((3-(4-(3-((2-(dinonylamino)ethyl)(nonyl)amino)propanoyl)piperazin-1-yl)-3-oxopropyl)(nonyl)amino)butanoate]: in series [2] (Table 1b), the “EE (%)” value was found to be 97.73%. Moreover, the “AUC (p/s*h) CD-1 mice 0.5 mpk” value in the series on hEPO mRNA expression is on record as 3.46E+7 p/s*h. In series [6] (Table 1b), the PDI was 0.18 and the “Size (nm)” value was 61.7 nm.
Regarding `CCCCCCCCCN(CCCCCCCCC)CCC1CCN(C(=O)CN(CCCCCCCCC)CCN(CCCCCCCCC)CCCCCCCCC)C1` (centres unmarked) [Compound 69, 2-((2-(Dinonylamino)ethyl)(nonyl)amino)-1-(3-(2-(dinonylamino)ethyl)pyrrolidin-1-yl)ethan-1-one], the “EE (%)” value in series [2] (Table 1b) was 99.31%. In the series with hEPO mRNA expression, the “AUC (p/s*h) CD-1 mice 0.5 mpk” value worked out at 2.33E+8 p/s*h. Besides, in series [6] (Table 1b), the PDI came out at 0.24 and the “Size (nm)” value was determined as 74.4 nm.
`CCCCCCCCCN(CCCCCCCCC)CCN(CCCCCCCCC)CC(=O)N1CCC(CN(CCCCCCCCC)CCCCCCCCC)C1` (centres unmarked) [Compound 70, 2-((2-(Dinonylamino)ethyl)(nonyl)amino)-1-(3-((dinonylamino)methyl)pyrrolidin-1-yl)ethan-1-one]: the “EE (%)” value in series [2] (Table 1b) stood at 99.14%. In the series on hEPO mRNA expression, the “AUC (p/s*h) CD-1 mice 0.5 mpk” value is listed as 6.34E+7 p/s*h. For the same molecule, in [6] (Table 1b), the PDI was 0.24 and the “Size (nm)” value was found to be 79.8 nm.
For `CCCCCCCCCN(CCCCCCCCC)CCC1CCCN(C(=O)CN(CCCCCCCCC)CCN(CCCCCCCCC)CCCCCCCCC)C1` (centres unmarked) [Compound 73, 2-((2-(Dinonylamino)ethyl)(nonyl)amino)-1-(3-(2-(dinonylamino)ethyl)piperidin-1-yl)ethan-1-one], in series [2] (Table 1b), the “EE (%)” value was 98.85%. For the same molecule, in the series on hEPO mRNA expression, the “AUC (p/s*h) CD-1 mice 0.5 mpk” value was 1.41E+8 p/s*h. Also, in series [6] (Table 1b), the PDI turned out to be 0.25 and the “Size (nm)” value is reported as 84.3 nm.
Taken in the same sequence, the figures for `CCCCCCCCCN(CCCC(=O)OCCCCC)CCC1CCCN(C(=O)CN(CCCCCCCCC)CCN(CCCCCCCCC)CCCCCCCCC)C1` (centres unmarked) [Compound 80, Pentyl 4-((2-(1-(N-(2-(dinonylamino)ethyl)-N-nonylglycyl)piperidin-3-yl)ethyl)(nonyl)amino)butanoate] were 98.93%, 6.24E+7 p/s*h, 0.2 and 65.8 nm.
As to `CCCCCCCCCN(CCCC(=O)OCCCCC)CCC1CCN(C(=O)CN(CCCCCCCCC)CCN(CCCCCCCCC)CCCCCCCCC)C1` (centres unmarked) [Compound 81, Pentyl 4-((2-(1-(N-(2-(dinonylamino)ethyl)-N-nonylglycyl)pyrrolidin-3-yl)ethyl)(nonyl)amino)butanoate], the “EE (%)” value in series [2] (Table 1b) is given as 99.27%. Also, the “AUC (p/s*h) CD-1 mice 0.5 mpk” value in the series on hEPO mRNA expression came to 1.08E+8 p/s*h. In [6] (Table 1b), the PDI amounted to 0.17 and the “Size (nm)” value is reported as 65.3 nm.
Regarding `CCCCCCCCCN(CCCCCCCCC)CCN(CCCCCCCCC)CC(=O)N1CCC(CN(CCCCCCCCC)CCCC(=O)OCCCCC)C1` (centres unmarked) [Compound 82, Pentyl 4-(((1-(N-(2-(dinonylamino)ethyl)-N-nonylglycyl)pyrrolidin-3-yl)methyl)(nonyl)amino)butanoate], the “EE (%)” value in [2] (Table 1b) is 99.23%. Besides, in the series with hEPO mRNA expression, the “AUC (p/s*h) CD-1 mice 0.5 mpk” value is listed as 1.29E+8 p/s*h. Moreover, in series [6] (Table 1b), the PDI is 0.24 and the “Size (nm)” value turned out to be 76.1 nm.
On to `CCCCCCCCCN(CCCC(=O)OCCCCC)CCC1CCN(C(=O)CN(CCCCCCCCC)CCN(CCCCCCCCC)CCCCCCCCC)CC1` [Compound 83, Pentyl 4-((2-(1-(N-(2-(dinonylamino)ethyl)-N-nonylglycyl)piperidin-4-yl)ethyl)(nonyl)amino)butanoate], for which, in series [2] (Table 1b), the “EE (%)” value turned out to be 99.12%. The “AUC (p/s*h) CD-1 mice 0.5 mpk” value with hEPO mRNA expression amounted to 5.21E+7 p/s*h. Besides, in series [6] (Table 1b), the PDI was 0.22 and the “Size (nm)” value came to 73.2 nm.
Taken in the same sequence, the figures for `CCCCCCCCCN(CCCC(=O)OCCCCC)CCCC1CCN(C(=O)CCN(CCCCCCCCC)CCN(CCCCCCCCC)CCCCCCCCC)CC1` [Compound 84, Pentyl 4-((3-(1-(3-((2-(dinonylamino)ethyl)(nonyl)amino)propanoyl)piperidin-4-yl)propyl)(nonyl)amino)butanoate] were 98.48%, 5.10E+7 p/s*h, 0.19 and 68.6 nm.
For `CCCCCCCCCN(CCCCCCCCC)CCCC1CCN(C(=O)CCN(CCCCCCCCC)CCN(CCCCCCCCC)CCCCCCCCC)CC1` [Compound 85, 3-((2-(Dinonylamino)ethyl)(nonyl)amino)-1-(4-(3-(dinonylamino)propyl)piperidin-1-yl)propan-1-one], in series [2] (Table 1b), the “EE (%)” value worked out at 99.18%. Further, the “AUC (p/s*h) CD-1 mice 0.5 mpk” value with hEPO mRNA expression is on record as 1.27E+8 p/s*h. Also, in series [6] (Table 1b), the PDI is 0.24 and the “Size (nm)” value amounted to 69.9 nm.
Taken in the same sequence, the figures for `CCCCCCCCCN(CCCOC(=O)CCCCC)CCC(=O)N1CCN(C(=O)CCN(CCCCCCCCC)CCN(CCCCCCCCC)CCCCCCCCC)CC1` [Compound 86, 3-((3-(4-(3-((2-(Dinonylamino)ethyl)(nonyl)amino)propanoyl)piperazin-1-yl)-3-oxopropyl)(nonyl)amino)propyl Hexanoate] were 97.42%, 1.75E+7 p/s*h, 0.14 and 53.6 nm.
`CCCCCCCCCN(CCCOC(=O)CCCCC)CCCC1CCN(C(=O)CCN(CCCCCCCCC)CCN(CCCCCCCCC)CCCCCCCCC)CC1` [Compound 87, 3-((3-(1-(3-((2-(Dinonylamino)ethyl)(nonyl)amino)propanoyl)piperidin-4-yl)propyl)(nonyl)amino)propyl Hexanoate]: the “EE (%)” value in [2] (Table 1b) is 98.67%. In addition, the “AUC (p/s*h) CD-1 mice 0.5 mpk” value in the series on hEPO mRNA expression turned out to be 2.86E+7 p/s*h. For the same molecule, in series [6] (Table 1b), the PDI was determined as 0.21 and the “Size (nm)” value turned out to be 80.9 nm.

The values above are taken from patent US10195156B2, “Compounds and compositions for intracellular delivery of agents” (ModernaTX, Inc., priority 2015, dated 2019).
